Reference: ChEMBL document CHEMBL1255393, “Impact of different factors on the probability of clinical response in tigecycline-treated patients with intra-abdominal infections” (Antimicrob Agents Chemother, 2010)
Values after ≈ are worked out from the molar mass of the structure shown.

How the values were obtained:
[1] = Serum clearance in intra-abdominal infection patient at 100 mg followed by 50 mg every 12 hrs for 5 to 14 days; assay type: ADME, organism-based; conditions: human
[2] = AUC in intra-abdominal infection patient at 100 mg followed by 50 mg every 12 hrs for 5 to 14 days; assay type: ADME, organism-based; conditions: human, plasma
[3] = system: Enterobacteriaceae; experiment: Antibacterial activity against Enterobacteriaceae isolate obtained from intra-abdominal infection patient; assay type: functional
[4] = Ratio of AUC in intra-abdominal infection patient at 100 mg followed by 50 mg every 12 hrs for 5 to 14 days to MIC for Enterobacteriaceae isolate; assay type: functional

## CN(C)c1cc(NC(=O)CNC(C)(C)C)c(O)c2c1C[C@H]1C[C@H]3[C@H](N(C)C)C(O)=C(C(N)=O)C(=O)[C@@]3(O)C(O)=C1C2=O [TIGECYCLINE]
[1]
  clearance: 268 mL/min
[2]
  AUC: 6190 ng·h/mL
[3]
  MIC50: 0.25 µg/mL (≈ 0.427 µM)
  MIC90: 1 µg/mL (≈ 1.71 µM)
[4]
  Ratio: 21.8
